# pIC50: −log10 of the molar value. “Also recorded” adds a separate entry of the source. Like-named read-outs stand apart in the source and are kept apart here.
# Key:
# [1] = system: nonswarming P. aeruginosa mutant rhlA; experiment: Swarming motility of nonswarming rhlA mutant on soft agar (reactivation / agonist assay); assay type: cell-based, Pseudomonas aeruginosa; conditions: for Swarming motility of rhlA mutant: 85 μM in soft agar (0.5%), 24 h
# Summary of the method: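 rhlA transposon mutant of PAO1 (3 μl, OD600 0.4–0.6) inoculated on M8 soft agar (0.2% glucose, 0.5% casamino acids, 1 mM MgSO4, 0.5% agar) with test compound to find swarming agonists. Incubated 12 h at 37 °C plus 12 h at room temperature; swarm area measured by weighing paper cut-outs of imaged swarms.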
# [2] = system: PAO1-GFP; experiment: microbe, parasite or virus in culture; assay type: cell-based, Pseudomonas aeruginosa
# Procedure: (§1) A crystal violet (CV) assay was used to measure the amount of PAO1 biofilm formed after 24 h of bacterial inoculation. The fluorescence of green fluorescent proteins (GFP) expressed by PAO1-GFP was measured to directly quantify bacterial adhesion on polystyrene black 96 well plates with and without maltose derivatives after 2 h of bacterial inoculation. To evaluate the potential of maltose derivatives as both anti-biofilm and anti-adhesion agents, they were compared to a brominated furanone (BF8) known to inhibit biofilm formation, and two generic surfactants, sodium dodecyl sulfate (SDS) and tetra (ethylene glycol) monododecyl ether (C12EG4OH). […] P. aeruginosa strain PAO1-EGFP that constitutively producing green fluorescent protein was allowed to form biofilm on sterile steel coupons.
# Overnight culture of PAO1-GFP was subcultured to an OD600 of 0.01 into the 95:5 M9+:Lb medium. Subculture was allowed to reach the OD600 of 0.1 in a rotary shaker at 250 rpm and 37° C. 200 μL of the subculture was then transferred to the wells of black microtiter plate with and without (control) maltose derivatives. This black 96 well plate was then incubated in a shaker at 37° C. for 2 h. After 2 h, bacterial culture from the plate was discarded and each well was washed once with saline water (0.85 w/v % aqueous NaCl solution). Fresh 95:5 M9+:Lb medium was added to the black 96 well plate and fluorescence of the surface adhered bacteria was measured by Synergy 2 multi-mode microplate reader with Gen5 data analysis software at an excitation wavelength of 500 nm and an emission wavelength of 540 nm. Background signal from 95:5 M9+:Lb medium was eliminated from all the samples.
# [3] = system: PAO1 biofilm; experiment: Crystal violet dye based biofilm inhibition assay, maltose derivatives (Example 1); assay type: cell-based, Pseudomonas aeruginosa; conditions: for Inhibition of PAO1 biofilm: 110 μM, 24 h, CV assay; for pIC50: CV dye based assay
# Procedure: as §1
# Inhibitory effect of all the maltose hydrocarbons on P. aeruginosa biofilm formation was determined by crystal violet dye based biofilm inhibition assays. Overnight culture of wild type P. aeruginosa (PAO1) was sub cultured to an OD600 of 0.01 into the 95:5 M9+:Lb medium. 200 μL of the sub culture was aliquoted into the wells of 96 well polystyrene microtiter plate when it reached the OD600 of 0.1. Predetermined concentrations of the test compounds were then added to the respective wells containing sub culture. Sample plates were wrapped in GLAD Press n′ Seal® followed by incubation under stationary conditions for 24 h at 37° C. After incubation the media was discarded and the plates were washed with water and dried for 1 h at 37° C. The sample plates were stained with 200 μL of 0.1% aqueous solution of crystal violet (CV) and followed by incubation at ambient temperature for 20 min. The CV stain was then discarded and the plates were washed with water. The remaining biofilm adhered stain was re-solubilized with 200 μL of 30% acetic acid. After the stain was dissolved (15 minutes), 100 μL of the solubilized CV was transferred from each well into the corresponding wells of a new polystyrene microtiter dish. Biofilm inhibition was quantified by measuring the OD600 of each well in which a negative control lane wherein no biofilm was formed served as a background and was subtracted out. The percent inhibition was calculated by the comparison of the OD600 for biofilm grown in the absence of compound (control) versus biofilm grown in the presence of compound under identical conditions.
# (§2) Predetermined amounts maltose derivatives stock solution was added to the 200 μL bacterial culture in 96 well plate so that the final concentration of the agent reaches the desired values of 1, 5, 10, 20, 40, 85, 113, 140 μM. Biofilm inhibition and dispersion assay was carried as described previously.
# [4] = system: 24 h old PAO1 biofilm; experiment: Crystal violet biofilm dispersion assay, maltose derivatives (Example 1); assay type: cell-based, Pseudomonas aeruginosa; conditions: for DC50: 24 h old biofilm, read-out: Biofilm dispersion DC50 (half-maximal dispersion)
# Procedure: Chemical dispersion of already formed biofilm is often more relevant to medical application, and more challenging than biofilm inhibition assays, for which the agents are introduced at the onset of an experiment. We screened the ability of maltose derivatives at 110 μM to disperse 24 h old biofilm.
# PAO1 was allowed to grow for 24 h at 37° C. After 24 h, bacterial culture was pipetted out and replaced with 200 μL of 110 μM maltose hydrocarbons and sterile water (control). After 1 h treatment with maltose hydrocarbons, biofilm was fixed and quantified using crystal violet dye as described above. The amount of dispersed biofilm was determined via comparison of the amount of biofilm at 24 h in the presence of maltose hydrocarbons versus the amount of biofilm in the “no compound” positive control at 24 h (wells with water treatment).
# as §2
# [5] = system: Pseudomonas aeruginosa strain PAO1-BAA-47; experiment: Mouse P. aeruginosa pneumonia model; assay type: in vivo; conditions: SP-A/D KO mice
# [6] = Solubility in water
# Procedure: Stock solution of disaccharide hydrocarbons (DSHs). Stock solution (˜11.5 mM) of all synthesized and commercially available DSHs were prepared in autoclaved water and further sterilized by filtering through cellulose acetate syringe filter (0.2 μm pore size, GVS filter technology) into sterilized vials. The vials containing sterilized DSHs stocks were capped and stored at −20° C. and thawed prior to each use. Appropriate volume of sterile water was added to positive controls (no agents) in all assays to eliminate the effect of water. Stock solution of DβL (7), SFβL (15) and 2-ODαC (17) were prepared in sterile water and 200 proof EtOH in 90:10 ratio. For positive controls involving DβL (7), SFβL (15) and 2-ODαC (17) appropriate volumes of 90:10, H2O:EtOH was added.
molecule,measurement,setting,value
12-hydroxy decyl β-maltose [12-HODeβM],Swarming motility of rhlA mutant,[1],did not exhibit any significant activation of swarming
same,Inhibition of PAO1-EGFP adhesion on polystyrene,"[2]; 85 μM, 2 h",about 7%
same,Inhibition of PAO1 biofilm,[3],about 30%
same,Inhibition of PAO1 biofilm,[3]; listed as HODeβM,32%
CC1=C(Br)/C(=C/Br)OC1=O [BF8],Inhibition of PAO1 adhesion on polystyrene,[2]; 100 μM,showed no inhibition; also recorded: does not inhibit the adhesion
same,Inhibition of PAO1 biofilm,[3],about 35%
"O=C(c1ccccc1)c1ccc(COCCCCCCCCCCO[C@@H]2O[C@H](CO)[C@@H](O[C@H]3O[C@H](CO)[C@@H](O)[C@H](O)[C@H]3O)[C@H](O)[C@H]2O)cc1 [BPDeβM, benzophenonyl decyl β-maltoside]",Swarming motility of rhlA mutant,[1],swarming motility with without well-defined tendrils
same,pIC50,[3],4.65
same,DC50,[4],31 µM
"CCCCCCCCCCCCO[C@@H]1O[C@H](CO)[C@@H](O[C@H]2O[C@H](CO)[C@@H](O)[C@H](O)[C@H]2O)[C@H](O)[C@H]1O [DM, Dodecyl Maltoside]",CFU number in the lung,"[5]; 50 μl of 170 μM intratracheal 24 h after infection, sacrifice 24 h later",significantly decreased CFU number in the lung
same,"Lung inflammation (histology, H&E)",[5]; 50 μl of 170 μM intratracheal,improved the lung inflammation
"CCCCCCCCCCCC[N+](C)(C)C.[Cl-] [DTAC, dodecyl trimethyl ammonium chloride, reference compound]",Reactivation of swarming motility of rhlA mutant,[1]; concentration not given,did not promote or reactivate
same,Anti-biofilm activity (inhibition),[3]; concentration not given,did not show any anti-biofilm activities
same,Anti-biofilm activity (dispersion),[4]; concentration not given,did not show any anti-biofilm activities
"CC(C)CCCC(C)CCCC(C)CCO[C@@H]1O[C@H](CO)[C@@H](O[C@@H]2O[C@H](CO)[C@H](O)[C@H](O)[C@H]2O)[C@H](O)[C@H]1O (stereo partly drawn) [SFβL (15), saturated famesyl-β-lactoside]",Solubility in water,[6],poor water-solubility
same,Solubility in water,[6]; listed as 15: SFβL,poor solubility in water; also recorded: not soluble in either water or in water/EtOH mixture
benzyl dodecyl β-maltoside [BDβM],Swarming motility of rhlA mutant,[1],swarming motility with without well-defined tendrils
same,pIC50,[3],4.56
same,DC50,[4],32 µM
